In series [1] the test system is Human immunodeficiency virus 1. Nature of the series: Antiviral activity against HIV1 3B infected human HOS cells expressing human CXCR4 and CD4 assessed as inhibition of viral infection by luciferase reporter gene assay. The settings on record: Human immunodeficiency virus 1, 3B. It counts as functional, organism-based. (In general: Reporter assays use an easily measured gene product as a stand-in for the process of interest.)

For series [2], the system named is Human immunodeficiency virus 1. Briefly: Antiviral activity against HIV1 3B infected human HOS cells expressing human CXCR4 and CD4 assessed as inhibition of viral infection in presence of human serum albumin and alpha-acid glycoprotein by luciferase reporter gene assay. It counts as functional. More on the design: unit not given here.
The target of series [3] is C-X-C chemokine receptor type 4 (Homo sapiens) (UniProt P61073). Briefly: Antagonist activity at CXCR4. It is filed as functional.
Chain of C-X-C chemokine receptor type 4 (Homo sapiens) (P61073 whole entry): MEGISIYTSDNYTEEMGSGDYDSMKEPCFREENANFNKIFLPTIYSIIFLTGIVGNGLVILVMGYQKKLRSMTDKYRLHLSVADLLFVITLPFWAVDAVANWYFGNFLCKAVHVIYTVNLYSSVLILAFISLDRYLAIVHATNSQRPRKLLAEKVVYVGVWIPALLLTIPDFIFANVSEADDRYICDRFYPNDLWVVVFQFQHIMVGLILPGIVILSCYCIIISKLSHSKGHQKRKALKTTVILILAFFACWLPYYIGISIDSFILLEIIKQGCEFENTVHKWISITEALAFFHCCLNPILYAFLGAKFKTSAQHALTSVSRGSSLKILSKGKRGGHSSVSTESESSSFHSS
Series [4] can be described thus: Cytotoxicity against human HOS cells. It counts as cell-based.
The nature of series [5]: Oral bioavailability in rat at 3 mg/kg. The settings on record: in vivo. It is filed as ADME, organism-based.
The nature of series [6]: Half life in rat at 1 mg/kg, iv. It is filed as ADME, organism-based. More on the design: dose 1 mg/kg, route intravenous. The settings on record: in vivo.
Series [7] is described as follows: Clearance in rat at 1 mg/kg, iv. The settings on record: in vivo. It counts as ADME, organism-based. More on the design: dose 1 mg/kg, route intravenous.
A short description of series [8]: Volume of distribution at steady state in rat at 1 mg/kg, iv. More on the design: dose 1 mg/kg, route intravenous. The following applies: in vivo, read-out: Vdss. It is filed as ADME, organism-based.
Series [9] in a line: Volume of distribution at steady state in cynomolgus monkey at 1 mg/kg, iv. The settings on record: in vivo, read-out: Vdss. It is filed as ADME, organism-based, Macaca fascicularis. Also noted: dose 1 mg/kg, route intravenous.
The nature of series [10]: Oral bioavailability in cynomolgus monkey at 3 mg/kg. It is filed as ADME, organism-based, Macaca fascicularis. The settings on record: in vivo.
Series [11] can be described thus: Clearance in Beagle dog at 1 mg/kg, iv. It is filed as ADME, organism-based, Canis lupus familiaris. The settings on record: in vivo. More on the design: dose 1 mg/kg, route intravenous.
A short description of series [12]: Half life in Beagle dog at 1 mg/kg, iv. It counts as ADME, organism-based, Canis lupus familiaris. Also noted: dose 1 mg/kg, route intravenous. The settings on record: in vivo.
The nature of series [13]: Oral bioavailability in Beagle dog at 3 mg/kg. It is filed as ADME, organism-based, Canis lupus familiaris. The settings on record: in vivo.
Series [14] is described as follows: Volume of distribution at steady state in Beagle dog at 1 mg/kg, iv. It is filed as ADME, organism-based, Canis lupus familiaris. Also noted: dose 1 mg/kg, route intravenous. The following applies: in vivo, read-out: Vdss.
Series [15] in a line: Half life in cynomolgus monkey at 1 mg/kg, iv. The following applies: in vivo. Also noted: dose 1 mg/kg, route intravenous. It counts as ADME, organism-based, Macaca fascicularis.
Series [16] is described as follows: Clearance in cynomolgus monkey at 1 mg/kg, iv. It is filed as ADME, organism-based, Macaca fascicularis. Also noted: dose 1 mg/kg, route intravenous. The settings on record: in vivo.

SMILES strings stand for the structures. Active and inactive are the calls of the source. The rule behind the calls is not given here. A value given as a limit tells only on which side of the number the result lay.

On to `CC(C)N(Cc1cn2c(N3CCN(C)CC3)cccc2n1)[C@H]1CCCc2cccnc21`, for which, in series [1], the concentration for half-maximal inhibition (IC50) – broadly, the midpoint of a concentration-inhibition curve – is 5 nM. Moreover, the Activity in series [2] is given as 5. The result in [3] was Active. Further, in series [4], the 50% cytotoxic concentration (CC50) (as a rule, the concentration that lowers cell viability or growth by half) was 8900 nM.
For `CCCN(Cc1cn2c(N3CCN(C)CC3)cccc2n1)[C@H]1CCCc2cccnc21`, the bioavailability (in general, dose-corrected exposure relative to a reference, in per cent) in series [5] worked out at 41%. For the same compound, the IC50 in [1] worked out at 3 nM. For the same compound, in series [6], the half-life (usually how long it takes for the measured level to halve) was 10.7 h. Moreover, in [2], the Activity is reported as 5. The result in [3] was Active. In addition, in series [4], half-maximal cytotoxicity (CC50) was put at 6700 nM. Besides, the clearance (as a rule, a measure of how efficiently the substance is removed, as volume per time) in [7] is 8.9 mL/min/kg. In addition, the Vd in series [8] was 6.2 L/kg.
Regarding `CN(Cc1cn2c(N3CCOCC3)cccc2n1)C1CCCc2cccnc21` (racemic), in series [1], the IC50 came to 690 nM. For the same compound, the result in [3] was Active. The same compound yielded a CC50 in series [4] of more than 10000 nM.
With `CN1CCN(c2cccc3nc(CN(C)[C@H]4CCCc5cccnc54)[nH]c23)CC1`, the Activity in [2] is reported as 80. For the same compound, the outcome in [3] was Active. Further, in [4], the 50% cytotoxic concentration (CC50) was more than 5000 nM.
Take `CCN1CCN(c2cccc3nc(CN(C)[C@H]4CCCc5cccnc54)cn23)CC1`: in series [1], the half-maximal inhibitory concentration (IC50) was 4 nM. In addition, in [2], the Activity turned out to be 10. Moreover, the result in series [3] was Active. In series [4], this compound registered a half-maximal cytotoxic concentration (CC50) of 3900 nM.
`CN1CCC(N(C)c2cccc3nc(CN(C)[C@H]4CCCc5cccnc54)cn23)CC1`: the IC50 in series [1] was 49 nM. In [3], the outcome was Active. The same compound returned a CC50 in series [4] of 12500 nM.
The corresponding values for `CN(Cc1cn2c(N3CCC(N)CC3)cccc2n1)[C@H]1CCCc2cccnc21` are 4 nM, “Active” and 6300 nM.
As to `CN1CCC(N(C)c2cccc3nc(CN(C)[C@H]4CCCc5cccnc54)cn23)C1` (some centres undefined), in series [1], the half-inhibitory concentration (IC50) stood at 30 nM. In series [2], the Activity was 1.3. In addition, in [3], the result was Active. Further, half-maximal cytotoxicity in series [4] (CC50) was put at 10800 nM.
In the case of `CC(C)N1CCN(c2cccc3nc(CN(C)[C@H]4CCCc5cccnc54)cn23)CC1`, the bioavailability in [5] was determined as 29%. Further, in series [1], the concentration for half-maximal inhibition (IC50) came to 3 nM. This compound gave a half-life in series [6] of 3.9 h. Moreover, the Activity in series [2] was found to be 3.3. Besides, the result in series [3] was Active. Further, the 50% cytotoxic concentration (CC50) in series [4] was found to be 7100 nM. This compound displayed a clearance in [7] of 31 mL/min/kg. For the same compound, in series [8], the Vd was found to be 10.6 L/kg.
For `CN(C)[C@@H]1CCN(c2cccc3nc(CN(C)[C@H]4CCCc5cccnc54)cn23)C1`, the IC50 in series [1] came to 43 nM. In addition, the Activity in series [2] worked out at 5. For the same compound, in series [3], the outcome was Active. In series [4], this compound displayed a CC50 of 4900 nM.
For the compound `CN1CCN(c2cccn3cc(CN(C)[C@H]4CCCc5cccnc54)nc23)CC1`, in series [1], the IC50 came out at 640 nM. Further, the outcome in series [3] was Active. The CC50 in series [4] is more than 5000 nM.
Take `CN(C)C1CCN(c2cccc3nc(CN(C)[C@H]4CCCc5cccnc54)cn23)CC1`: the bioavailability in [5] was determined as 7%. For the same compound, the IC50 in series [1] was 4 nM. This compound also gave a half-life in series [6] of 10 h. Moreover, the Activity in [2] came to 8. Also, the result in [3] was Active. Moreover, in [4], the CC50 came to 3400 nM. This compound came in with a clearance in series [7] of 5.7 mL/min/kg. Also, the Vd in series [8] was 5.1 L/kg.
For the compound `CCN(Cc1cn2c(N3CCN(C)CC3)cccc2n1)[C@H]1CCCc2cccnc21`, in series [1], the half-inhibitory concentration (IC50) turned out to be 2 nM. Further, in series [2], the Activity turned out to be 1.5. Besides, the result in series [3] was Active. In addition, the CC50 in [4] came to 8100 nM.
For the compound `CN1CCN(c2cccc3nc(CN(C)[C@H]4CCCc5cccnc54)cn23)CC1`, the results for the bioavailability in series [5], in [10] and in [13] were 11%, 10% and 13%, respectively. The concentration for half-maximal inhibition (IC50) in [1] was determined as 2 nM. The Vd in series [9] stood at 3.7 L/kg; in series [14] it was 8.5 L/kg; in series [8], 4.9 L/kg. The clearance came out at 18 mL/min/kg in series [11], 14 mL/min/kg in series [7] and 6 mL/min/kg in series [16]. For the same compound, the values for the half-life in series [12], in [6] and in series [15] were 7.6 h, 5.5 h and 10 h, respectively. Besides, the Activity in series [2] is on record as 1.5. In addition, the result in [3] was Active. The CC50 in [4] was 4500 nM.
`CN(Cc1cn2c(N3CCN4CCCC4C3)cccc2n1)[C@H]1CCCc2cccnc21` (some centres undefined): in series [1], the IC50 worked out at 4 nM. Also, the result in series [3] was Active. The compound also displayed a CC50 in series [4] of 3900 nM.
The like results for `CN1CCN(c2cccc3nc(CN(Cc4ccccc4)[C@H]4CCCc5cccnc54)cn23)CC1` were, in that order, 28 nM, “Active” and 9300 nM.
On to `CCCCN(Cc1cn2c(N3CCN(C)CC3)cccc2n1)[C@H]1CCCc2cccnc21`, for which, in series [1], the IC50 came to 3 nM. Also, in [3], the result was Active. In series [4], this compound displayed a CC50 of 5300 nM.
The like results for `CN1CCN(c2cccc3nc(CN(CC(F)(F)F)C4CCCc5cccnc54)cn23)CC1` (racemic) were, in that order, 127 nM, “Active” and more than 5000 nM.
The like results for `CC(C)CN(Cc1cn2c(N3CCN(C)CC3)cccc2n1)[C@H]1CCCc2cccnc21` were, in that order, 23 nM, “Active” and 20000 nM.
In the case of `CN(C)[C@H]1CCN(c2cccc3nc(CN(C)[C@H]4CCCc5cccnc54)cn23)C1`, the bioavailability in [5] is 2%. Also, in series [1], the 50% inhibitory concentration (IC50) stood at 8 nM. Moreover, in series [6], the half-life is 7.9 h. The Activity in series [2] is 3. Besides, in series [3], the result was Active. In series [4], this compound gave a 50% cytotoxic concentration (CC50) of 2100 nM. Also, the clearance in series [7] is 9.5 mL/min/kg. Besides, the Vd in series [8] is 4.5 L/kg.
For the compound `CN1CCN(c2cccc3nc(CN(C)[C@@H]4CCCc5cccnc54)cn23)CC1`, in series [1], the IC50 is 84 nM. In series [3], the outcome was Active. Moreover, in series [4], the CC50 is 12600 nM.
As to `CN1CCN(c2cccc3nc(CN(CC4CC4)[C@H]4CCCc5cccnc54)cn23)CC1`, the bioavailability in [5] came out at 31%. Also, the IC50 in [1] came to 4 nM. The same compound showed a half-life in [6] of 8.8 h. Moreover, the Activity in [2] is given as 6. Further, the outcome in series [3] was Active. Besides, the cytotoxic concentration (CC50) in [4] was determined as 8000 nM. In series [7], this compound displayed a clearance of 9.9 mL/min/kg. Moreover, in series [8], the Vd was 6 L/kg.

Values taken from ChEMBL document CHEMBL1156094, “Imidazopyridine-5,6,7,8-tetrahydro-8-quinolinamine derivatives with potent activity against HIV-1” (Bioorg Med Chem Lett, 2009).
